pIC50: −log10 of the molar value. The source made the active and inactive calls. The rule behind the calls is not given here.
Assays:
Plasmodium falciparum [1] = experiment: Antiplasmodial activity against chloroquine sensitive Plasmodium falciparum 3D7 infected in human erythrocytes incubated for 72 hrs by SYBR Green1-based fluorescence analysis; format: functional, organism-based; details: 3D7, 72 h
Plasmodium falciparum [2] = experiment: Antiplasmodial activity against chloroquine resistant Plasmodium falciparum K1 infected in human erythrocytes incubated for 72 hrs by SYBR Green1-based fluorescence analysis; format: functional, organism-based; details: K1, 72 h
[3] = Cytotoxicity against monkey kidney Vero cells by resazurin assay; format: cell-based; details: chlorocebus sabaeus
[4] = Selectivity index, ratio of CC50 for monkey kidney VERO cells to IC50 for chloroquine sensitive Plasmodium falciparum 3D7 infected in human erythrocytes; format: functional
[5] = Selectivity index, ratio of CC50 for monkey kidney VERO cells to IC50 for chloroquine resistant Plasmodium falciparum K1 infected in human erythrocytes; format: functional
[6] = Resistance index, ratio of IC50 for chloroquine resistant Plasmodium falciparum K1 infected in human erythrocytes to IC50 for chloroquine sensitive Plasmodium falciparum 3D7 infected in human erythrocytes; format: functional
[7] = system: Plasmodium yoelii nigeriensis; experiment: Antiplasmodial activity against multidrug-resistant Plasmodium yoelii nigeriensis infected in Swiss mouse assessed as suppression of parasitaemia at 100 mg/kg, po for 4 days by Geimsa-staining based analysis; format: functional; details: 96 h
Mus musculus = experiment: Toxicity in multidrug-resistant Plasmodium yoelii nigeriensis infected Swiss mouse assessed as mouse survival at 100 mg/kg/day, po for 4 days; format: organism-based; details: in vivo, 96 h
MCF7 [8] = experiment: Induction of p53 protein expression in human MCF7 cells at antiplasmodial IC50 after 36 hrs by luciferase reporter assay relative to control; format: functional
MCF7 [9] = experiment: Upregulation of p53 level in human MCF7 cells at antiplasmodial IC50 after 48 hrs by immnublotting method; format: functional, cell-based; details: TDE = time-dependent effect
[10] = Cmax in Sprague-Dawley rat at 100 mg/kg, po after 0 to 48 hrs by LC-MS/MS analysis; format: ADME, organism-based; set-up: dose 100 mg/kg, route oral; details: in vivo
[11] = Tmax in Sprague-Dawley rat at 100 mg/kg, po after 0 to 48 hrs by LC-MS/MS analysis; format: ADME, organism-based; details: in vivo
Rattus norvegicus [12] = experiment: AUC(last) in Sprague-Dawley rat at 100 mg/kg, po after 0 to 48 hrs by LC-MS/MS analysis; format: ADME, organism-based; set-up: dose 100 mg/kg, time 0 - last, route oral; details: in vivo
Rattus norvegicus [13] = experiment: Apparent oral volume of distribution in Sprague-Dawley rat at 100 mg/kg, po after 0 to 48 hrs by LC-MS/MS analysis; format: ADME, organism-based; details: in vivo
[14] = Apparent oral clearance in Sprague-Dawley rat at 100 mg/kg, po after 0 to 48 hrs by LC-MS/MS analysis; format: ADME, organism-based; details: in vivo
[15] = Mean residence time(last) in Sprague-Dawley rat at 100 mg/kg, po after 0 to 48 hrs by LC-MS/MS analysis; format: ADME, organism-based; details: in vivo
MCF7 [16] = experiment: Induction of p53 protein expression in human MCF7 cells at antiplasmodial IC50 after 36 hrs by luciferase reporter assay relative to control relative to doxorubicin; format: functional

| Structure (SMILES) | pIC50 (Plasmodium falciparum [1]) | pIC50 (Plasmodium falciparum [2]) | CC50 [3] [nM] | Ratio CC50/IC50 [4] | Ratio CC50/IC50 [5] | Ratio IC50 [6] | inhibition in vivo at 100 mg/kg [7] [%] | Activity (Mus musculus) | Activity (MCF7 [8]) | Activity (MCF7 [9]) | Cmax [10] [ng/mL] | Tmax [11] [h] | AUClast (Rattus norvegicus [12]) [ng·h/mL] | Vd/F (Rattus norvegicus [13]) [L/kg] | CL/F [14] [mL/min/kg] | MRT last [15] [h] | fold change (FC) (MCF7 [8]) | fold change (FC) (MCF7 [16]) |
| --- | --- | --- | --- | --- | --- | --- | --- | --- | --- | --- | --- | --- | --- | --- | --- | --- | --- | --- |
| CC(C)c1ccc(-c2c(C(O)(CNc3ccc(F)cc3)c3ccc(Cl)cc3)nnn2Cc2ccccc2)cc1 (stereo not given) | 5.80 | 5.78 | > 500000 | >316.45 | >299.4 | 1.05 |  |  |  |  |  |  |  |  |  |  |  |  |
| Cc1ccc(NCC(O)(c2ccc(Br)cc2)c2nnn(Cc3ccccc3)c2-c2ccccc2)cc1C (stereo not given) | 5.57 | 5.46 | > 500000 | >183.8 | >143.6 | 1.27 |  |  |  |  |  |  |  |  |  |  |  |  |
| OC(CNc1ccc(Br)cc1)(c1ccc(Cl)cc1)c1nnn(Cc2ccc(Br)cc2)c1-c1ccc(Cl)cc1 (stereo not given) | 5.62 | 5.77 | > 500000 | >206.61 | >297.61 | 0.69 |  |  |  |  |  |  |  |  |  |  |  |  |
| OC(CNc1ccc(F)cc1)(c1ccc(Cl)cc1)c1nnn(Cc2ccccc2)c1-c1ccccc1 (stereo not given) | 5.48 | 5.45 | > 500000 | >151.05 | >140.05 | 1.07 |  |  |  |  |  |  |  |  |  |  |  |  |
| OC(CNc1ccc(Br)cc1)(c1ccc(Cl)cc1)c1nnn(Cc2ccccc2)c1-c1ccc(Cl)cc1 (stereo not given) | 5.80 | 5.85 | > 500000 | >314.4 | >354.6 | 0.88 |  |  |  |  |  |  |  |  |  |  |  |  |
| CCN(CC)CCCC(C)Nc1ccnc2cc(Cl)ccc12 (stereo not given) [CHLOROQUINE PHOSPHATE] |  |  | > 500000 |  |  |  |  |  |  |  |  |  |  |  |  |  |  |  |
| Cc1ccc(NCC(O)(c2ccc(Cl)cc2)c2nnn(Cc3ccccc3)c2-c2ccc(F)cc2)cc1C (stereo not given) | 5.57 | 5.55 | > 500000 | >187.26 | >178.57 | 1.04 |  |  |  |  |  |  |  |  |  |  |  |  |
| Cc1ccc(C(O)(CNc2ccc(C)c(C)c2)c2nnn(Cc3ccccc3)c2-c2ccc(Cl)cc2)cc1 (stereo not given) | 5.75 | 5.57 | > 500000 | >280.89 | >185.87 | 1.51 |  |  |  |  |  |  |  |  |  |  |  |  |
| OC(CNc1ccc(I)cc1)(c1ccc(Cl)cc1)c1nnn(Cc2ccccc2)c1-c1ccc(Cl)cc1 (stereo not given) | 5.83 | 5.83 | > 500000 | >337.83 | >340.1 | 0.99 |  |  |  |  |  |  |  |  |  |  |  |  |
| OC(CNc1ccccc1Br)(c1ccc(Cl)cc1)c1nnn(Cc2ccccc2)c1-c1ccc(F)cc1 (stereo not given) | 5.04 | 5.07 | > 500000 | >55 | >59.1 | 0.93 |  |  |  |  |  |  |  |  |  |  |  |  |
| OC(CNc1ccc(F)cc1)(c1ccc(Cl)cc1)c1nnn(Cc2ccccc2)c1-c1ccc(F)cc1 (stereo not given) | 5.41 | 5.48 | > 500000 | >129.19 | >151.97 | 0.85 |  |  |  |  |  |  |  |  |  |  |  |  |
| OC(CNc1ccccc1Br)(c1ccc(Cl)cc1)c1nnn(Cc2ccccc2)c1-c1ccc(Br)cc1 (stereo not given) | 4.94 | 5.06 | > 500000 | >43.21 | >58.07 | 0.74 |  |  |  |  |  |  |  |  |  |  |  |  |
| OC(CNc1ccc2c(c1)OCO2)(c1ccc(Cl)cc1)c1nnn(Cc2ccccc2)c1-c1ccc(Cl)cc1 (stereo not given) | 5.56 | 5.59 | > 500000 | >183.1 | >195.3 | 0.93 |  |  |  |  |  |  |  |  |  |  |  |  |
| OC(CNc1ccc(Br)cc1)(c1ccc(Cl)cc1)c1nnn(Cc2ccccc2)c1-c1ccc(Br)cc1 (stereo not given) | 6.06 | 5.69 | > 500000 | >574.71 | >233.64 | 2.45 | 27.2 | Non-toxic |  |  |  |  |  |  |  |  |  |  |
| OC(CNc1ccc(Br)cc1)(c1ccc(Cl)cc1)c1nnn(Cc2ccccc2)c1-c1ccc(F)cc1 (stereo not given) | 5.96 | 5.70 | > 500000 | >454.54 | >248.75 | 1.82 | 64.6 | Non-toxic | Active |  |  |  |  |  |  |  |  |  |
| OC(CNc1ccc(Br)cc1)(c1ccc(Br)cc1)c1nnn(Cc2ccccc2)c1-c1ccccc1 (stereo not given) | 5.78 | 6.30 | > 500000 | >303.03 | >1000 | 0.3 | 16.8 | Non-toxic | Active | tde |  |  |  |  |  |  |  |  |
| OC(CNc1cccc2ccccc12)(c1ccc(Cl)cc1)c1nnn(Cc2ccccc2)c1-c1ccc(Cl)cc1 (stereo not given) | 5.88 | 5.91 | 290000 | 217.59 | 235.39 | 0.92 |  |  | Active | tde |  |  |  |  |  |  |  |  |
| OC(CNc1ccc(Br)cc1)(c1ccc(Cl)cc1)c1nnn(Cc2ccccc2)c1-c1ccccc1 (stereo not given) | 5.71 | 5.73 | > 500000 | >256.41 | >267.37 | 0.95 |  |  |  |  |  |  |  |  |  |  |  |  |
| OC(CNc1ccc(F)c(F)c1)(c1ccc(Cl)cc1)c1nnn(Cc2ccccc2)c1-c1ccc(Cl)cc1 (stereo not given) | 5.67 | 6.30 | > 500000 | >232.55 | >1000 | 0.23 | 89.9 | Non-toxic |  |  |  |  |  |  |  |  |  |  |
| OC(CNc1ccc(F)cc1)(c1ccc(Cl)cc1)c1nnn(Cc2ccccc2)c1-c1ccc(Br)cc1 (stereo not given) | 5.49 | 5.49 | > 500000 | >155.76 | >154.79 | 1 |  |  |  |  |  |  |  |  |  |  |  |  |
| Cc1ccc(NCC(O)(c2ccc(Cl)cc2)c2nnn(Cc3ccccc3)c2-c2ccc(Cl)cc2)cc1C (stereo not given) | 5.65 | 5.50 | > 500000 | 183.15 | 195.31 | 1.41 |  |  |  |  |  |  |  |  |  |  |  |  |
| Cc1ccc(NCC(O)(c2ccc(Cl)cc2)c2nnn(Cc3ccccc3)c2-c2ccccc2)cc1C (stereo not given) | 5.59 | 5.57 | > 500000 | >193.79 | >185.18 | 1.04 |  |  |  |  |  |  |  |  |  |  |  |  |
| OC(CNc1ccc(Cl)cc1)(c1ccc(Cl)cc1)c1nnn(Cc2ccccc2)c1-c1ccc(F)cc1 (stereo not given) | 5.55 | 5.69 | > 500000 | >175.43 | >242.71 | 0.72 |  |  |  |  |  |  |  |  |  |  |  |  |
| COc1cc(NCC(O)(c2ccc(Cl)cc2)c2nnn(Cc3ccccc3)c2-c2ccc(Cl)cc2)ccc1Br (stereo not given) | 5.78 | 5.82 | > 500000 | >303.3 | >326.29 | 0.92 |  |  |  |  |  |  |  |  |  |  |  |  |
| CC(C)c1ccc(-c2c(C(O)(CNc3ccc(Br)cc3)c3ccc(Cl)cc3)nnn2Cc2ccccc2)cc1 (stereo not given) | 6.52 | 5.68 | 155000 | 515.3 | 73.26 | >7.03 | 86.8 | Non-toxic |  | tde | 212 | 4 | 1590 | 1837.17 | 741 | 15 | 20 | 10 |
| OC(CNc1ccc(F)cc1)(c1ccc(Br)cc1)c1nnn(Cc2ccccc2)c1-c1ccccc1 (stereo not given) | 5.57 | 5.34 | > 500000 | >184.5 | >108.9 | 1.69 |  |  |  |  |  |  |  |  |  |  |  |  |
